# According to US4505893A, “Purified plasminogen activator, process for its production and thrombolytic composition containing it” (Asahi Kasei Kogyo Kabushiki Kaisha, priority 1982, dated 1985):
# Square brackets hold non-standard residues; d marks the D form. Peptide text beside a SMILES is read from it. * marks the point of attachment. Sta = CC(C)C[C@H](N)[C@@H](O)CC(=O)O; Isovaleryl = CC(C)CC(=O)*
# How the values were obtained:
# urokinase = urokinase (Homo sapiens, UniProt P00749); experiment: biochemical
# [1] = target: T1, substance of this invention (plasminogen activator) (Homo sapiens, UniProt P00750); experiment: biochemical
# T1 construct: endogenous in cells
# fibrin = experiment: Affinity to fibrin (incorporation into formed fibrin); format: binding; conditions: 500 U/ml (urokinase 500 IU/ml); plasminogen-free fibrinogen + thrombin, 1 hour at room temperature; extracted with 2M ammonium thiocyanate
# [2] = Hydrolysis activity on various organic substrates; format: biochemical; conditions: 37° C. 15 minutes, 1 μM aminomethylcoumarin = 100%, substance 100 U/ml, urokinase 120 IU/ml
# plasminogen = experiment: Enhancement of activity with fibrin (plasminogen activation, Boc-Val-Leu-Lys-MCA); format: biochemical; conditions: 5 U/ml (urokinase 5 IU/ml), 25° C. 1 hour, 10 μM aminomethylcoumarin = 100%
# T1 sequence (P00750 36-562): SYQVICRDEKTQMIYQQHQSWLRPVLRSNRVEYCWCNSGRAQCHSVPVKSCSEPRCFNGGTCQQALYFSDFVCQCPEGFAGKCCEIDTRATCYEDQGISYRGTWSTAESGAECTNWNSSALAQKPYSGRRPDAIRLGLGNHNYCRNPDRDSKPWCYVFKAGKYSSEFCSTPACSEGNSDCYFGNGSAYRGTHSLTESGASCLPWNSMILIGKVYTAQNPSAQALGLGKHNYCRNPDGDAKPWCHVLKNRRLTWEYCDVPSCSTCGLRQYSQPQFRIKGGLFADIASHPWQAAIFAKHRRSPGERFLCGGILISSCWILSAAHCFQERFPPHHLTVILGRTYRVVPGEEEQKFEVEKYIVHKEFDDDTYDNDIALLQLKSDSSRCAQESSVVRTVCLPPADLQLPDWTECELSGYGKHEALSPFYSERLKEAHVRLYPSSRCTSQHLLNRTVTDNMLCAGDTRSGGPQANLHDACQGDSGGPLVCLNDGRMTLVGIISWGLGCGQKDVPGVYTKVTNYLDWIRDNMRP
compound,measurement,setting,value
CC(C)C[C@H](NC(=O)[C@@H](NC(=O)N[C@@H](Cc1ccccc1)C(=O)O)[C@@H]1CCN=C(N)N1)C(=O)N[C@H](C=O)Cc1ccccc1 [Chymostatin],IC50,urokinase,> 160 µM
same,IC50,[1],> 160 µM
CCOC(=O)c1ccc(OC(=O)CCCCCNC(=N)N)cc1 [FOY],IC50,urokinase,0.146 µM
same,IC50,[1],12.8 µM
CC(=O)N[C@@H](CC(C)C)C(=O)N[C@@H](CC(C)C)C(=O)N[C@H](C=O)CCCNC(=N)N [Leupeptin],IC50,urokinase,80.7 µM
same,IC50,[1],47.5 µM
CC(C)CC(=O)N[C@H](C(=O)N[C@H](C(=O)N[C@@H](CC(C)C)[C@@H](O)CC(=O)N[C@@H](C)C(=O)N[C@@H](CC(C)C)[C@@H](O)CC(=O)O)C(C)C)C(C)C [Pepstatin] (Isovaleryl-VV[Sta]A[Sta]-OH),IC50,urokinase,> 100 µM
same,IC50,[1],> 100 µM
urokinase,proportion of the substance incorporated in the fibrin,fibrin,not incorporated in the fibrin at all
same,Hydrolysis Activity (%),[2]; substrate Boc-Glu-Lys-Lys-MCA 0.1 mM,2.82%
same,Hydrolysis Activity (%),[2]; substrate Boc-Ileu-Glu-Gly-Arg-MCA 0.1 mM,3.30%
same,Hydrolysis Activity (%),[2]; substrate Boc-Phe-Ser-Arg-MCA 0.1 mM,48.9%
same,Hydrolysis Activity (%),[2]; substrate Glt-Gly-Arg-MCA 0.1 mM,314%
same,Hydrolysis Activity (%),[2]; substrate Pro-Phe-Arg-MCA 0.1 mM,3.89%
same,Hydrolysis Activity (%),[2]; substrate Z--Phe-Arg-MCA 0.1 mM,2.15%
same,Hydrolysis Activity (%),plasminogen; fibrinogen added,5.9%
same,Hydrolysis Activity (%),plasminogen; fibrinogen not added,28%
